# Molecular target: T1, Cys12 of the KRAS 4B G12C protein (Homo sapiens, UniProt P01116, G12C)
# T1 construct: This protein contained 188 amino acids in total, including an N-terminal 6-Histidine tag; made in house; host or cells: E. coli BL21
# Assay: In vitro covalent adduct formation (CAF) assay, LC-MS intact mass
# Format: binding
# Details: after 60 min
# Outline: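 GDP-loaded (>95%) His-TEV-tagged KRAS 4B G12C (residues 1–169), 5 μM in TBS pH 7.4, incubated with 10 μM compound (4% DMSO) at 22° C for one hour. Intact-protein LC-MS gave free:adduct ratios, reported as percent protein modified; duplicate runs.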
row,Compound,CAF (% binding after 60 min) [%]
1,"C=CC(=O)N1CCN(c2nc(=O)n3c4c(c(-c5ccc(F)cc5)c(C(F)(F)F)cc24)SC[C@@H](OCCOC)C3)CC1 [Example 1017, (S)-8-(4-acryloylpiperazin-1-yl)-11-(4-fluorophenyl)-3-(2-methoxyethoxy)-10-(trifluoromethyl)-3,4-dihydro-2H,6H-[1,4]thiazepino[2,3,4-ij]quinazolin-6-one]",98
2,"C=CC(=O)N1CCN(c2nc(=O)n3c4c(c(-c5ccc(F)cc5F)c(C(F)(F)F)cc24)SC[C@H](OCCOC)C3)CC1 [Example 1018, (3R)-8-(4-acryloylpiperazin-1-yl)-11-(2,4-difluorophenyl)-3-(2-methoxyethoxy)-10-(trifluoromethyl)-3,4-dihydro-2H,6H-[1,4]thiazepino[2,3,4-ij]quinazolin-6-one]",96
3,"C=CC(=O)N1CCN(c2nc(=O)n3c4c(c(-c5ccc(F)cc5F)c(C(F)(F)F)cc24)SC[C@@H](OCCOC)C3)CC1 [Example 1019, (3S)-8-(4-acryloylpiperazin-1-yl)-11-(2,4-difluorophenyl)-3-(2-methoxyethoxy)-10-(trifluoromethyl)-3,4-dihydro-2H,6H-[1,4]thiazepino[2,3,4-ij]quinazolin-6-one]",97
4,"C=CC(=O)N1CCN(c2nc(=O)n3c4c(c(-c5ccc(F)c(Cl)c5)c(C(F)(F)F)cc24)SC[C@H](OCCOC)C3)CC1 [Example 1020, (R)-8-(4-acryloylpiperazin-1-yl)-11-(3-chloro-4-fluorophenyl)-3-(2-methoxyethoxy)-10-(trifluoromethyl)-3,4-dihydro-2H,6H-[1,4]thiazepino[2,3,4-ij]quinazolin-6-one]",97
5,"C=CC(=O)N1CCN(c2nc(=O)n3c4c(c(-c5ccc(F)c(Cl)c5)c(C(F)(F)F)cc24)SC[C@@H](OCCOC)C3)CC1 [Example 1021, (S)-8-(4-acryloylpiperazin-1-yl)-11-(3-chloro-4-fluorophenyl)-3-(2-methoxyethoxy)-10-(trifluoromethyl)-3,4-dihydro-2H,6H-[1,4]thiazepino[2,3,4-ij]quinazolin-6-one]",97
6,"C=CC(=O)N1CCN(c2nc(=O)n3c4c(c(-c5cc(Cl)c(F)cc5F)c(C(F)(F)F)cc24)SC[C@H](OCCOC)C3)CC1 [Example 1022, (3R)-8-(4-acryloylpiperazin-1-yl)-11-(5-chloro-2,4-difluorophenyl)-3-(2-methoxyethoxy)-10-(trifluoromethyl)-3,4-dihydro-2H,6H-[1,4]thiazepino[2,3,4-ij]quinazolin-6-one]",85
7,"C=CC(=O)N1CCN(c2nc(=O)n3c4c(c(-c5cc(Cl)c(F)cc5F)c(C(F)(F)F)cc24)SC[C@@H](OCCOC)C3)CC1 [Example 1023, (3S)-8-(4-acryloylpiperazin-1-yl)-11-(5-chloro-2,4-difluorophenyl)-3-(2-methoxyethoxy)-10-(trifluoromethyl)-3,4-dihydro-2H,6H-[1,4]thiazepino[2,3,4-ij]quinazolin-6-one]",97
8,"C=CC(=O)N1[C@H](C)CN(c2nc(=O)n3c4c(c(-c5ccc(F)cc5)c(C(F)(F)F)cc24)SC[C@H](OCCOC)C3)C[C@@H]1C [Example 1024, (R)-8-((3S,5R)-4-acryloyl-3,5-dimethylpiperazin-1-yl)-11-(4-fluorophenyl)-3-(2-methoxyethoxy)-10-(trifluoromethyl)-3,4-dihydro-2H,6H-[1,4]thiazepino[2,3,4-ij]quinazolin-6-one]",97
9,"C=CC(=O)N1[C@H](C)CN(c2nc(=O)n3c4c(c(-c5ccc(F)cc5)c(C(F)(F)F)cc24)SC[C@@H](OCCOC)C3)C[C@@H]1C [Example 1025, (S)-8-((3S,5R)-4-acryloyl-3,5-dimethylpiperazin-1-yl)-11-(4-fluorophenyl)-3-(2-methoxyethoxy)-10-(trifluoromethyl)-3,4-dihydro-2H,6H-[1,4]thiazepino[2,3,4-ij]quinazolin-6-one]",96
